According to patent US6383488B1, “Pre-M/M epitopes of dengue virus, synthetic peptides, chimeric proteins and their use” (priority 1997, dated 2002):
“Also recorded” adds a separate entry of the source.

Columns and labels:
[1] = system: anti-peptide antibodies in sera of Dengue patients; assay: Indirect ELISA to detect anti-peptide antibodies, human sera; format: binding; conditions: 118 sera of Dengue patients diluted 1/200; for Percentage of positivity of human sera to peptide: peptide coated at 10 µg/ml
Protocol: Peptides 19-6, 20-1, 20-2, 20-3 were fixed to the plates in a 10 m g/ml concentration in coating buff they were incubated at 4 C. overnight Sera were added diluted 1/200 in PBS-Tween 20. Finally, total human /peroxidase anti-immunoglobuline conjugate was added, and subsequently, the substrate (orthophenylendiamine, H2O2, 0.05 M phosphate citrate buffer, pH 5) was added. The reading was carried out in an ELISA reader at 492 nm and the cut-off value for each peptide was determined.
The sera used were from subjects having viral clinical infection that was serologically diagnosed as Dengue by the techniques of Inhibition of the hemagglutination (Clarke, D. H. y Casals, J. 1958. Techniques for hemagglutination and hemagglutination—inhibition with Arthropod Borne Virus. Am. J. Trop. Med. Hyg. 7 p.561) and ELISA of inhibition (Vzquez, S., Fernndez, R. 1989. Utilizacin de un mtodo de ELISA de Inhibicin en el diagnstico serolgico de dengue. Rev. Cub. Med. Trop. 41(1) p18-26) for total anti-dengue antibodies.
The study induded 118 sera from patents of the epidemics occurred in Cuba 1981, Panama 1994 and Costa Rica 1994. Dengue virus 2 was isolated in these epidemics, besides serotype 1 and 4 in Costa Rica; they were classified according to the titers of inhibiting antibodies of hemagglutination in cases of primary and secondary infections.

[2] = system: live, mouse-adapted dengue-2 virus (strain A15); assay: Protection assay, intracranial challenge of immunized mice; format: in vivo, Balb/c mice; conditions: mice immunized with conjugated peptides; 100 LD50 intracranial; observed up to 21 days; Fisher's test, p<0,05
Protocol: Male Balb/c mice of 4-6 weeks old were immunized with 50 mg of the peptide-BSA conjugate intraperitoneally. In addition, two immunization schemes were performed, one with BSA and the other with PBS. A total of 4 inoculations were carried out, each of them 15 days apart. The Freund's Complete Adjuvant was used in the first doses, and the Freund's Incomplete Adjuvant in the others. A blood sample was extracted from the retro-orbital vein seven days after the last inoculation.
Mice were challenged 7 days after the last immunization by intracraneal injection with an dilution of 1/2500 (corresponding to 100 LD50 lethal doses) of live, mouse-adapted dengue-2 virus (strain A15). […] Data were tested for statistical significance using Fisher's test.

[3] = system: spleen T lymphocytes cultured with dengue 2 virus; assay: In vitro blastogenesis assay of spleen T lymphocytes from peptide-immunized mice; format: cell-based, BALB/c mice; conditions: mice immunized with non-conjugated peptides; cells cultured with dengue 2 virus
Protocol: T cells from 19-6 and 19-5 immunized mice proliferated in an in vitro blastogenesis assay when they were cultured with the dengue 2 virus. […] It could contain a T cell cryptic epitope, being recognized in the free form of peptide but not like a result of the immunodominant epitopes presentation and processing of the virus in a natural infection.
FIG. 5. Proliferative response to dengue 2 virus antigens (at concentrations of 10, 20 and 40 m g/ml) of spleen T cells from peptides-immunized mice 19-6, 19-5 and 20-2.

[4] = system: Dengue virus serotype 4 (D4); assay: In vitro plaque-reduction neutralization test (PRNT) of anti-peptide sera, serotype D4; format: cell-based; conditions: sera of Balb/c mice immunized with peptide-BSA conjugate; titer = dilution giving 50% plaque number reduction; BHK-21 cells
[5] = system: Dengue 2 virus (strain A 15); assay: In vitro plaque-reduction neutralization test (PRNT) of anti-peptide sera, serotype D2; format: cell-based; conditions: sera of Balb/c mice immunized with peptide-BSA conjugate; titer = dilution giving 50% plaque number reduction; BHK-21 cells
Protocol: Neutralization technique was carried out according to Morens (Morens, D. M. et al. 1985. Simplified plaque reduction neutralization assay for dengue viruses by semimicro methods in BHK-21 cells: Comparison of the BHK suspension test with standard plaque reduction neutralization. J. Clin. Microbiol. 22 p.250).
Dilutions of anti-peptide sera and of anti-BSA controls and negative sera from 1/10 to 1/640 were prepared. Each dilution of sera was put into contact with a dilution of the virus (strain A 15 of Dengue 2) having 15-20 PFU/50 ml.
The mixture was incubated at 37 C. during 1 hour. A total of 50 ml of each mixture were added in triplicate to BHK-21 cells in plates of 24 wells, and they were incubated in a CO2 incubator at 37 C. during 4 hours. Then, 0.5 ml of carboxymethylcellulose-containing medium were added, and it was incubated again for several days considering the viral serotype used. After these days tinction and the count of lysis plaques produced by the virus were carried out.
Titer was expressed in each case as the dilution at which it was obtained the 50% of plaque number reduction.

[6] = system: Dengue virus serotype 3 (D3); assay: In vitro plaque-reduction neutralization test (PRNT) of anti-peptide sera, serotype D3; format: cell-based; conditions: sera of Balb/c mice immunized with peptide-BSA conjugate; titer = dilution giving 50% plaque number reduction; BHK-21 cells
[7] = system: four Dengue virus serotypes; assay: Induction of neutralizing antibodies (summary statement); format: cell-based; conditions: against the four Dengue virus serotypes; immunized mice
Protocol: Peptides were inoculated in Balb/c mice both conjugated or not to a carrier protein. The sera obtained after immunization with the conjugated peptides were tested by in vitro neutralization by reducing the number of plaques and by ELISA. We also studied the active protection against a Dengue 2 viral challenge in the immunized mice.

[8] = system: Dengue virus serotype 1 (D1); assay: In vitro plaque-reduction neutralization test (PRNT) of anti-peptide sera, serotype D1; format: cell-based; conditions: sera of Balb/c mice immunized with peptide-BSA conjugate; titer = dilution giving 50% plaque number reduction; BHK-21 cells
synthetic peptides = assay: ELISA of sera from mice immunized with fusion proteins, against the synthetic peptides; format: binding; conditions: mouse immunization with semipurified fusion proteins
From the text: Mouse immunization with PD33 and PD34 fusion proteins semipurified by a non-denaturalizing protocol, has elicited high titers against them in ELISA (up to 1/100 000), and at the same time antibodies with titers up to 1/4000 in ELISA against the synthetic peptides have been obtained.

Molecule | Average of the reactivity index (optical density of the sample/cut-off value) [1] | Percentage of positivity of human sera to peptide [1] [%] | Level of protection (survival) after Dengue 2 virus challenge [2] | Virus-specific proliferative response of spleen T lymphocytes [3] | Anti-peptide neutralization titer, D4 [4] | Anti-peptide neutralization titer, D2 [5] | Anti-peptide neutralization titer, D3 [6] | Induction of neutralizing antibody production [7] | Anti-peptide neutralization titer, D1 [8] | ELISA antibody titers against the synthetic peptides (synthetic peptides)
NSTSTWVTYGTCTTTGEHRREKRSV [B 20-1] | 1.52 | 79.6 | statistically significant; also recorded: statistically significative level of protection | – | – | – | – | – | – | –
CEDTITYKCPLLRQNEPEDIDCW [B 20-2] | 1.57 | 77.1 | – | did not elicit a significant proliferative response | – | – | – | – | – | –
RQNEPEDIDCWCNSTSTWVTYGTCTTTGEHRREKRS [B 19-5] | – | – | statistically significant; also recorded: statistically significative level of protection | Virus-specific proliferative responses were demonstrated; also recorded: proliferated | – | – | – | – | – | –
LTTRNGEPHMIVMRQEKGKSLLFKTGDGV [B 19-6] | 1.07 | 56.8 | statistically significant; also recorded: statistically significative level of protection | Virus-specific proliferative responses were demonstrated; also recorded: proliferated | 1/160 | 1/180 | 1/60 | able to induce neutralizing antibody production | 1/100 | –
LETRTETWMSSEGAWKHAQRIE [B 20-3] | 1.49 | 83.1 | – | – | 1/80 | 1/80 | 1/80 | able to induce neutralizing antibody production | 1/110 | –
PD33 (protein) MALVELKVPDIGGHENVDIIAVEVNVGDTIAVDDTLITLDLESVALTPHSGMGLETRAETWMSSEGAWKHAQRVESWILRNPRFLEMDVPAEVAGVVKEVKVKVGDKISEGGLIVVVEAEGTAAAPKAEAAAAPAQEAPKAAAPAPQAAQFGGSADAEYDVVVLGGGPGGYSAAFAAADEGLKVAIVERYKTLGGVCLNVGCIPSKALLHNAAVIDEVRHLAANGIKYPEPELDIDMLRAYKDGVVSRLTGGLAGMAKSRKVDVIQGDGQFLDPHHLEVSLTAGDAYEQAAPTGEKKIVAFKNCIIAAGSRVTKLPFIPEDPRIIDSSGALALKEVPGKLLIIGGGIIGLEMGTVYSTLGSRLDVVEMMDGLMQGADRDLVKVWQKQNEYRFDNIMVNTKTVAVEPKEDGVYVTFEGANAPKEPQRYDAVLVAAGRAPNGKLISAEKAGVAVTDRGFIEVDKQMRTNVPHIYAIGDIVGQPMLAHKAVHEGHVAAENCAGHKAYFDARVIPGVAYTSPEVAWVGETELSAKASGRKITKANFPWAASGRAIANGCDKPFTKLIFDAETGRIIGGGIVGPNGGDMIGEVCLAIEMGCDAADIGKTIHPHPTLGESIGMAAEVALGTCTDLPPQKKK | – | – | – | – | – | – | – | – | – | up to 1/4000
